# Like-named read-outs stand apart in the source and are kept apart here.
# How the values were obtained:
# E. coli K12 = test: MIC, CLSI/NCCLS broth microdilution; assay type: cell-based, Escherichia coli; settings: read-out: Minimal Inhibitory Concentration (MIC) E. coli K12
# Experimental: (§1) Two different strains of E. coli (Gram-negative) were used. The laboratory strain of E. coli, K-12 (ATCC Accession No. 700926), was used for preliminary MIC determinations. The tetracycline resistant strain of E. coli (Tet^R) was prepared by transforming competent JM109 E. coli (Promega) with the pBR322 plasmid (Carolina Biologicals) using the manufacturers protocol. This plasmid contains two resistance genes: the tetA gene expresses the tetracycline resistance TetA efflux pump (Sapunaric and Levy, Microbiol. 2005, 151, 2315-2322) and the amp^R gene expresses a β-lactamase enzyme (Bolivar, et al; Gene 1977, 2, 95-113) that cleaves the four membered ring of penicillin derivatives. The resulting E. coli, which we designate Tet^R E. coli, is both tetracycline and ampicillin resistant. The TetA efflux pump belongs to the major facilitator superfamily (MFS), spans the cytoplasmic membrane, and transports tetracycline from the cell cytoplasm to the periplasmic space (Thanassi, et al., J. Bacteriol. 1995, 177, 998-1007). This active efflux utilizes the proton gradient as an energy source (Levy, Antimicrob. Agents Chemother. 1992, 36, 695-703). One Gram-positive strain, S. aureus (ATCC Accession No. 29213), used for MIC study expresses the MFS type NorA efflux pump and is methicillin sensitive. MFS type efflux pumps are clinically relevant for resistance in both Gram-positive and Gram-negative bacteria (Sun, et al., Biochem. Biophys. Res. Commun. 2014, 453, 254-267). A Staphylococcus aureus 1199B strain that overexpresses the NorA efflux pump was also used to conduct checkerboard experiments (see, Example 8 below). This strain of S. aureus 1199B is resistant to both norfloxacin and ethidium bromide.
# (§2) K-12 E. coli and S. aureus were acquired from ATCC. The S. aureus strain was used in the BSL-2 facility. K-12 E. coli was grown in L. B. Miller media (Sigma-Aldrich) and S. aureus was grown in cation adjusted MHII media (Sigma-Aldrich). Tet^R E. coli was grown in L. B. Miller media containing 100 μg/mL Ampicillin.
# (§3) MIC experiments were performed as described in the Clinical and Laboratory Standards Institute (CLSI) standard microdilution protocols. Bacteria was grown overnight from one CFU in media without antibiotics. Tet^R E. coli was grown in media containing 100 μg/mL Ampicillin. On the day of experiment, bacteria were knocked back to O.D. 600 nm=0.550 in the same media. These exponential phase bacteria were then diluted in antibiotics-free media to get […]. In a 96-well plate either L. B. Miller or MHII media was added followed by serially diluted compounds 1-11, tetracycline, or ampicillin. All the tryptophan based compounds were dissolved in DMSO and the final concentration of DMSO in each well was kept constant at 0.5% (v/v).
# (§4) For the combination experiments, first, the BT or control was added to the media in the well followed by the antibiotics. The contents of the well were mixed before adding 20 μL of bacteria to get 4×10^5 CFU/mL per well. The plates were incubated at 37° C., 200 RPM for 24 hours before collecting results on the Biotek Cytation 3 plate reader. No more than three plates were stacked on top of each other at a time. Optical density of the wells was determined at λ=600 nm. Cells alone were considered as 0% inhibition and media alone was considered as 100% inhibition. Any inhibition greater than 80% was considered as the MIC. The results were reproduced three times before reporting.
# (§5) All minimum inhibitory concentration (MIC) values for compounds 1-11 were determined according to the methods prescribed by the National Committee for Clinical Laboratory Standards (NCCLS, Methods for Dilution Antimicrobial Susceptibility Tests for Bacteria that grow aerobically; National Committee for Clinical Laboratory Standards 2000, 5th Edition, M7-A5). […]
# Tet^R E. coli [1] = test: MIC, CLSI/NCCLS broth microdilution; assay type: cell-based, Escherichia coli; settings: 24 h; for Minimal Inhibitory Concentration (MIC) E. coli Tet^R: >80% growth inhibition, 37° C., substance alone; for MIC: Escherichia coli, read-out: Minimal Inhibitory Concentration (MIC) E. coli Tet^R
# Experimental: as §1, §2, §3, §4, §5
# [2] = test system: S. aureus (ATCC Accession No. 29213); test: MIC, CLSI/NCCLS broth microdilution; assay type: cell-based, Staphylococcus aureus; settings: read-out: Minimal Inhibitory Concentration (MIC) S. aureus
# Experimental: as §1, §2, §3, §4, §5
# Tet^R E. coli [3] = test: Membrane permeability and viability, confocal microscopy (propidium iodide / fluorescein diacetate); assay type: cell-based, Escherichia coli; settings: 0.1% (~1,670 μM) control detergent
# Experimental: To test the membrane permeability of the Tet^R E. coli, the bacteria was first grown overnight from one CFU in media containing 100 μg/mL Ampicillin at 37° C. and 200 RPM. Tet^R E. coli was then knocked back to O.D. 600 nm=0.550 before use. In a sterile test tube, cells were added followed by either compounds 2 or 10 at half-MIC concentrations and incubated at 37° C. and 200 RPM. The concentration of DMSO was kept constant at 0.5% —by volume in each case. After 30 minutes of incubation, the cells were washed by centrifugation at 3000×g for 5 minutes and re-suspended in sterile phosphate buffered saline (PBS). Propidium iodide (30 μM, Thermo-Fischer) and fluorescein diacetate (60 μM, Sigma-Aldrich) were added to the Tet^R E. coli cells in the PBS, mixed by vortexing and incubated at 37° C. and 200 RPM. After 30 minutes, the cells were washed again by centrifugation at 3000×g for 5 minutes. The pellet was suspended in a fresh PBS, loaded onto a clean glass slide, covered with a cover slip and observed under Zeiss LSM 700 confocal microscope.
# The study was designed to assess the membrane permeability and viability of the E. coli in the presence of BTs 2 and 10. The three panels in FIG. 6 show the bright field (BF) microscopic images (top row), the result when fluorescein diacetate (FDA) is present (middle row), and the presence of propidium iodide (PI, bottom row), if any. […] When it does, it intercalates in DNA, which leads to enhanced fluorescence. Fluorescein diacetate is incorporated into the cells during growth, but is not fluorescent. If the organism is or remains vital, the diester will be hydrolyzed and fluorescein will be observed by its fluorescence emission.
# Controls for the permeability/viability assay were included for E. coli in the presence of a final concentration of 0.5% (v/v) DMSO (the vehicle for administration of BTs), and a final concentration of 0.1% […] Triton X-100. […] Thus, less than or equal to 0.5% DMSO (v/v) was always used; the control is shown in the second column. Triton X-100 is a potent detergent, which was used at 0.1% or ˜1,670 μM.
# HEK-293 cells = test: Mammalian cell permeability and vitality, confocal microscopy (propidium iodide / fluorescein diacetate); assay type: cell-based, human
# Experimental: To test the permeability of HEK-293 cells, the cells were cultured in growth medium as described above. HEK-293 (90% confluent) were then seeded in a 96-well plate to get 30,000 cells/well. After 24 hours of incubation at 37° C. and 5% CO2, the spent media was replaced with media (DMEM and 10% FBS) containing compound 2 at either 20 μM or 80 μM. […] Triton X-100 at 0.1%—by volume (1670 μM) and DMSO 0.5% (v/v) were also used as controls. After 2 hours of incubation, spent media was replaced with PBS containing propidium iodide (30 μM) and fluorescein diacetate (60 μM) and incubated at 37° C. and 5% CO2. After 2 hour of incubation, the spend media was replaced with fresh PBS and the cells were observed under Zeiss LSM 700 confocal microscope. The images were reported without any alterations. The gain and the intensity in all the images were kept constant.
# A compound that inhibits bacterial growth and penetrates into the microbe's cytosol may also penetrate into mammalian cells. A similar microscopic study was conducted with the human embryonic kidney (HEK-293) cell line. In this case, only compound 2 was studied. […] The microscopic study was therefore conducted at 20 μM, a value well below any inhibitory concentration, and at 80 μM, a concentration above all three MIC values. The 80 μM concentration was used to confirm the […] of 2 and to establish the lack of serum inhibition.
# [4] = >80% growth inhibition, 24 h, 37° C.
# [5] = Staphylococcus aureus, ATCC29213, 24 h
Molecule,MIC (E. coli K12; [4]) [µM],"MIC (E. coli K12; Escherichia coli, K12, 24 h) [µM]",Minimal Inhibitory Concentration (MIC) E. coli Tet^R (Tet^R E. coli [1]) [µM],MIC (Tet^R E. coli [1]) [µM],"MIC [2, 4] [µM]","MIC [2, 5] [µM]",melting point,"MIC (E. coli K12; Escherichia coli, K12, >80% growth inhibition, 24 h, 37° C.) [µM]",viability (fluorescein diacetate fluorescence) (Tet^R E. coli [3]),propidium iodide penetration (membrane permeability) (HEK-293 cells)
"Cl.Cl.NCC(=O)Nc1cccc(NC(=O)CN)c1 [Compound 1, 2,2′-(1,3-Phenylenebis(azanediyl))bis(2-oxoethanaminium) chloride]",>128,> 128,>128,> 128,>128,> 128,310 °C (dec.),–,–,–
"O=C(CCc1c[nH]c2ccccc12)Nc1cccc(NC(=O)CCc2c[nH]c3ccccc23)c1 [Compound 4, N,N′-(1,3-Phenylene)bis(3-(1H-indol-3-yl)propanamide)]",–,> 128,–,> 128,–,> 128,154 to 156 °C,–,–,–
"Cl.Cl.N[C@H](Cc1c[nH]c2ccccc12)C(=O)NCCCCNC(=O)[C@@H](N)Cc1c[nH]c2ccccc12 [Compound 8, (S)-1-((4-((R)-2-Ammonio-3-(1H-indol-3-yl)propanamido)butyl)amino)-3-(1H-indol-3-yl)-1-oxopropan-2-aminium chloride]",–,> 128,–,> 128,–,> 128,204 °C (dec.),–,–,–
"Cl.Cl.N[C@@H](Cc1c[nH]c2ccccc12)C(=O)NCCCCCCNC(=O)[C@@H](N)Cc1c[nH]c2ccccc12 [Compound 9, (2S,2′S)-1,1′-(Hexane-1,6-diylbis(azanediyl))bis(3-(1H-indol-3-yl)-1-oxopropan-2-aminium) chloride]",–,> 128,–,128,–,> 128,193 °C (dec.),–,–,–
"Cl.N[C@@H](Cc1c[nH]c2ccccc12)C(=O)Nc1ccccc1 [Compound 11, (S)-3-(1H-Indol-3-yl)-1-oxo-1-(phenylamino)propan-2-aminium chloride]",>128,> 128,>128,> 128,>128,> 128,–,–,–,–
"CC1(C)S[C@@H]2[C@H](NC(=O)[C@H](N)c3ccccc3)C(=O)N2[C@H]1C(=O)O [ampicillin, reference compound]",–,–,–,> 1000,–,–,–,–,–,–
"CN(C)[C@@H]1C(O)=C(C(N)=O)C(=O)[C@@]2(O)C(O)=C3C(=O)c4c(O)cccc4[C@@](C)(O)[C@H]3C[C@@H]12 [tetracycline, reference compound]",–,–,900,900 ± 100,–,–,–,~3,–,–
Triton X-100 [reference compound],–,–,–,–,–,–,–,–,essentially all the cells were killed,strong signal from propidium iodide

# From patent publication US11213512B2, “Bis-amino acid based compound and use thereof” (THE CURATORS OF THE UNIVERSITY OF MISSOURI, priority 2016, dated 2022)
